Consider 15 compounds from patent US12065428B2, “Anti-viral compounds” (Aligos Therapeutics, Inc., priority 2021, dated 2024).

Like-named read-outs stand apart in the source and are kept apart here.

Data set [1] has as its system SARS-CoV-2-GHB-03021/2020. In words: microbe, parasite or virus in culture. The data set is classed as cell-based. The conditions noted are these: Severe acute respiratory syndrome coronavirus 2, Vero C1008, 96 h; read-out: VeroE6 + CP (EC50).
In another data set the target is T1, HRV3C (Human rhinovirus 14, UniProt P03303).
T1 construct: SARS-Cov-2 3CLpro and HRV3C Duplex Assay
T1 sequence (P03303 1538-1719): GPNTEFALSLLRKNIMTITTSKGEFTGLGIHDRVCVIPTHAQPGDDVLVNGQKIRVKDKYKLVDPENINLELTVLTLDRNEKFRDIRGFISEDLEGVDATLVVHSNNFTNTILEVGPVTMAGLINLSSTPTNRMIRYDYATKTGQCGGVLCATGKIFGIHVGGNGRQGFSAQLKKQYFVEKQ
In words: biochemical. Conditions: read-out: HRV IC50.

Data set [2] is described as follows: Cytotoxicity plates without OC43 virus in HeLa cells. Conditions: human, HeLa cells (uninfected). It is filed as cell-based. In short, it runs like this:
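HeLa cells pretreated 4 h with serially diluted compounds, then infected with OC43 at a dose giving 80-90% viability loss and incubated 6 days at 33 °C. Viability by CellTiter-Glo luminescence; EC50 from four-parameter fit of CPE inhibition. Uninfected parallel plates gave cytotoxicity.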

Data set [3] has as its system human beta-coronavirus OC43. In words: OC43 coronavirus assay in HeLa cells (cytopathic effect, cell-titer-glo). The data set is classed as cell-based. On the technique in general: Cytopathic effects are the visible damage that an infection or toxin causes in cultured cells.
The next data set deals with T2, human cathepsin L (Homo sapiens, UniProt P07711).
T2 construct: purchased R&D Systems
T2 sequence (P07711 114-333): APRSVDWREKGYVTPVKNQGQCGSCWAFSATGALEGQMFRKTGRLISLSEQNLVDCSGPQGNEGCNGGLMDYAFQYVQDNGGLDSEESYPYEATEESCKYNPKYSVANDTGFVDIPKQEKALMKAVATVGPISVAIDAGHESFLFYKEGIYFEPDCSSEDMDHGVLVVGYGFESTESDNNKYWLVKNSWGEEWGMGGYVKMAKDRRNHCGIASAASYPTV
Description: Cathepsin L assay (Z-FR-AMC fluorescence). The data set is classed as biochemical. Conditions: 10 pM human cathepsin L, 30 mins preincubation; class symbols. In short, it runs like this: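 Human cathepsin L at 10 pM was preincubated 30 min with compound, then reaction started with Z-FR-AMC (2 μM final). Fluorescence (355/460 nm) read every 2 min for 30 min; IC50 from four-parameter curve fit.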

The target of a further data set is T3, SARS-Cov-2 3CLpro (Severe acute respiratory syndrome coronavirus 2, UniProt P0DTD1).
T3 construct: SARS-Cov-2 3CLpro and HRV3C Duplex Assay
Description: SARS-Cov-2 3CLpro and HRV3C duplex assay (SAMDI-MS): 3CLpro. It is filed as biochemical. The conditions noted are these: 3CLpro, duplex assay, 30 mins preincubation; class symbols; read-out: SARS-Cov-2 IC50.

The target of the next data set is 3CLpro (Severe acute respiratory syndrome coronavirus 2, UniProt P0DTD1). Conditions: cited from earlier work.
A further data set deals with SARS-CoV-2. The conditions noted are these: cited from earlier work.
Setting [4] is: HRV3C, duplex assay, 30 mins preincubation, class symbols.
Setting [5] is: Betacoronavirus 1, 144 h, OC43 in HeLa cells, 6 days at 33° C., class symbols, read-out: EC50.

With `O=C(NC1CC1)C(=O)[C@H](C[C@@H]1CCNC1=O)NC(=O)[C@@H]1CC2(CCN1C(=O)c1ncc(-c3ccccc3)s1)CC2` [Example 1, (S)—N—((S)-4-(cyclopropylamino)-3,4-dioxo-1-((S)-2-oxopyrrolidin-3-yl)butan-2-yl)-6-(5-phenylthiazole-2-carbonyl)-6-azaspiro[2.5]octane-5-carboxamide], the values for the EC50 in data set [1] and in data set [3] (setting [5]) were under 1000 nM and 100 to 1000 nM, respectively. The IC50 – broadly, the concentration that gives 50% inhibition – on HRV3C (setting [4]) was 200 to 2000 nM; on human cathepsin L, at least 10000 nM; on SARS-Cov-2 3CLpro it was 20 to 200 nM. The CC50 (as a rule, the concentration at which the toxic effect on the cells reaches its halfway point) at 6 days in data set [2] (class symbols) lay within 10000 to 100000 nM.
For the compound `Cn1c(C(=O)N2CCC3(CC3)C[C@H]2C(=O)N[C@@H](C[C@@H]2CCNC2=O)C(=O)CO)cc2ccccc21` [Example 2, (S)—N—((S)-4-hydroxy-3-oxo-1-((S)-2-oxopyrrolidin-3-yl)butan-2-yl)-6-(1-methyl-1H-indole-2-carbonyl)-6-azaspiro[2.5]octane-5-carboxamide], the EC50 in data set [1] and in data set [3] (setting [5]) was 1000 to 10000 nM throughout. Also, the IC50 was over 10000 nM at HRV3C, at least 10000 nM at human cathepsin L and 20 to 200 nM on SARS-Cov-2 3CLpro. In addition, the CC50 at 6 days in data set [2] (class symbols) was at least 100000 nM.
`O=C(NC1CC1)C(=O)[C@H](C[C@@H]1CCNC1=O)NC(=O)[C@@H]1CC2(CCN1C(=O)c1nc(-c3ccccc3)cs1)CC2` [Example 3]: the EC50 (usually the midpoint of the concentration-response curve) in data set [1] lay within 1000 to 10000 nM; in data set [3] (setting [5]), 100 to 1000 nM. The IC50 at HRV3C (setting [4]) is 2000 to 20000 nM; against human cathepsin L, at least 10000 nM; at SARS-Cov-2 3CLpro it was 20 to 200 nM. Besides, in data set [2] (class symbols), the CC50 at 6 days was 10000 to 100000 nM.
Take `Cn1c(C(=O)N2CCC3(CC3)C[C@H]2C(=O)N[C@@H](C[C@@H]2CCNC2=O)C(=O)C(=O)NC2CC2)nc2ccccc21` [Example 4]: the EC50 in data set [1] and in data set [3] (setting [5]) was 1000 to 10000 nM throughout. For the same compound, the IC50 was 2000 to 20000 nM at HRV3C (setting [4]), at least 10000 nM at human cathepsin L and 20 to 200 nM on SARS-Cov-2 3CLpro. The same compound showed a CC50 at 6 days in data set [2] (class symbols) of at least 100000 nM.
In the case of `Cn1c(C(=O)N2CCC3(CC3)C[C@H]2C(=O)N[C@H](C#N)C[C@@H]2CCNC2=O)cc2ccccc21` [Example 5, (S)—N—((S)-1-cyano-2-((S)-2-oxopyrrolidin-3-yl)ethyl)-6-(1-methyl-1H-indole-2-carbonyl)-6-azaspiro[2.5]octane-5-carboxamide], the EC50 in data set [1] and in data set [3] (setting [5]) was 1000 to 10000 nM in each case. For the same compound, the figures for the IC50 on HRV3C, at human cathepsin L and at SARS-Cov-2 3CLpro were over 10000 nM, at least 10000 nM and 200 to 2000 nM, respectively. This compound also registered a CC50 at 6 days in data set [2] (class symbols) of at least 100000 nM.
Turning to `O=C(NC1CC1)C(=O)[C@H](C[C@@H]1CCNC1=O)NC(=O)[C@@H]1CC2(CCN1C(=O)C1Cc3ccccc3C1)CC2` [Example 6, (S)—N—((S)-4-(cyclopropylamino)-3,4-dioxo-1-((S)-2-oxopyrrolidin-3-yl)butan-2-yl)-6-(2,3-dihydro-1H-indene-2-carbonyl)-6-azaspiro[2.5]octane-5-carboxamide], the EC50 in data set [1] was under 1000 nM; in data set [3] (setting [5]), 100 to 1000 nM. Besides, the IC50 on HRV3C (setting [4]) was 200 to 2000 nM; against human cathepsin L, at least 10000 nM; on SARS-Cov-2 3CLpro, 20 to 200 nM. Moreover, in data set [2] (class symbols), the CC50 at 6 days was at least 100000 nM.
In the case of `Cn1nc2ccccc2c1C(=O)N1CCC2(CC2)C[C@H]1C(=O)N[C@@H](C[C@@H]1CCNC1=O)C(=O)C(=O)NC1CC1` [Example 7], the EC50 in data set [1] fell in the range of 1000 to 10000 nM; in data set [3] (setting [5]) it was 100 to 1000 nM. The IC50 is 200 to 2000 nM at HRV3C (setting [4]), 1000 to 10000 nM against human cathepsin L and under 20 nM at SARS-Cov-2 3CLpro. The compound further returned a CC50 at 6 days in data set [2] (class symbols) of at least 100000 nM.
Regarding `O=C(NC1CC1)C(=O)[C@H](C[C@@H]1CCNC1=O)NC(=O)[C@@H]1CC2(CCN1C(=O)c1cc3ccccc3n1C1CC1)CC2` [Example 8], the EC50 in data set [1] was under 1000 nM; in data set [3] (setting [5]), 100 to 1000 nM. Moreover, the IC50 at HRV3C (setting [4]) is 2000 to 20000 nM; against human cathepsin L, at least 10000 nM; at SARS-Cov-2 3CLpro, under 20 nM. This compound came in with a 50% cytotoxic concentration (CC50) at 6 days in data set [2] (class symbols) of at least 100000 nM.
In the case of `O=C(NC1CC1)C(=O)[C@H](C[C@@H]1CCNC1=O)NC(=O)[C@@H]1CC2(CCN1C(=O)c1cc3ccccn3n1)CC2` [Example 9], the EC50 in data set [1] and in data set [3] (setting [5]) was 1000 to 10000 nM in each case. Further, the values for the IC50 on HRV3C (setting [4]), against human cathepsin L and at SARS-Cov-2 3CLpro were 2000 to 20000 nM, at least 10000 nM and 200 to 2000 nM, respectively. In data set [2] (class symbols), this compound registered a CC50 at 6 days of at least 100000 nM.
For `Cn1nc(C(=O)N2CCC3(CC3)C[C@H]2C(=O)N[C@@H](C[C@@H]2CCNC2=O)C(=O)C(=O)NC2CC2)c2ccccc21` [Example 10], the EC50 in data set [1] and in data set [3] (setting [5]) was 1000 to 10000 nM each time. For the same compound, the IC50 at HRV3C (setting [4]) is 200 to 2000 nM; on human cathepsin L it was at least 10000 nM; on SARS-Cov-2 3CLpro, 20 to 200 nM. In data set [2] (class symbols), this compound displayed a CC50 at 6 days of at least 100000 nM.
Regarding `Cn1cc(C(=O)N2CCC3(CC3)C[C@H]2C(=O)N[C@@H](C[C@@H]2CCNC2=O)C(=O)C(=O)NC2CC2)c2ccccc21` [Example 11], the EC50 in data set [1] and in data set [3] (setting [5]) was 1000 to 10000 nM each time. Also, the IC50 on HRV3C (setting [4]) is under 20 nM; on human cathepsin L it was 1000 to 10000 nM; at SARS-Cov-2 3CLpro, 20 to 200 nM. Moreover, the CC50 at 6 days in data set [2] (class symbols) is at least 100000 nM.
With `O=C(NC1CC1)C(=O)C(C[C@@H]1CCNC1=O)NC(=O)[C@@H]1CC2(CCN1C(=O)c1cc3cccc(Cl)c3s1)CC2` (stereo partly drawn) [Example 12, (5S)-6-(7-chlorobenzo[b]thiophene-2-carbonyl)-N-(4-(cyclopropylamino)-3,4-dioxo-1-((S)-2-oxopyrrolidin-3-yl)butan-2-yl)-6-azaspiro[2.5]octane-5-carboxamide], the EC50 in data set [1] was under 1000 nM; in data set [3] (setting [5]), 100 to 1000 nM. For the same compound, the IC50 on HRV3C (setting [4]) was 20 to 200 nM; against human cathepsin L, 1000 to 10000 nM; at SARS-Cov-2 3CLpro, under 20 nM. This compound also showed a CC50 at 6 days in data set [2] (class symbols) of 10000 to 100000 nM.
For `CN1CCN(c2ccc(C(=O)N3CCC4(CC4)C[C@H]3C(=O)N[C@@H](C[C@@H]3CCNC3=O)C(=O)C(=O)NC3CC3)cc2)CC1` [Example 13, (3S)—N-cyclopropyl-3-{[(5S)-6-[4-(4-methylpiperazin-1-yl)benzoyl]-6-azaspiro[2.5]octan-5-yl]formamido}-2-oxo-4-[(3S)-2-oxopyrrolidin-3-yl]butanamide], the EC50 in data set [1] was over 50000 nM; in data set [3] (Betacoronavirus 1, OC43, HeLa), over 10000 nM. In addition, the IC50 on HRV3C is over 10000 nM; on human cathepsin L it was 1000 to 10000 nM; on SARS-Cov-2 3CLpro it was 200 to 2000 nM. This compound yielded a CC50 at 6 days in data set [2] (class symbols) of at least 100000 nM.
As for `N#C[C@H](C[C@@H]1CCNC1=O)NC(=O)[C@@H]1CC2(CCN1C(=O)c1ncc(-c3ccccc3)s1)CC2` [Example 52, (S)—N—((S)-1-cyano-2-((S)-2-oxopyrrolidin-3-yl)ethyl)-6-(5-phenylthiazole-2-carbonyl)-6-azaspiro[2.5]octane-5-carboxamide], the EC50 in data set [1] is 10000 to 100000 nM; in data set [3] (Betacoronavirus 1, OC43, HeLa), over 10000 nM. In addition, the IC50 on HRV3C (HRV3C, duplex assay, numeric bound: >10 indicates an IC50>10000 nM) is over 10000 nM; on human cathepsin L, at least 10000 nM; on SARS-Cov-2 3CLpro, 200 to 2000 nM. This compound had a CC50 at 6 days in data set [2] (numeric bound, unit inferred) of over 100000 nM.
For `CN1CCN(C(=O)N[C@@H](Cc2ccccc2)C(=O)N[C@H](/C=C/S(=O)(=O)c2ccccc2)CCc2ccccc2)CC1` [Example K117777], the “inhibitory effect on the 3CLpro” value on 3CLpro is “lacks an inhibitory effect”. Besides, in the data set on SARS-CoV-2 (A549-ACE2 expressing TMPRSS2 (Steuten et al.)), the “antiviral effect when TMPRSS2 was expressed” value is listed as “abolished”. Further, the “inhibition of SARS-CoV-2” value with SARS-CoV-2 (VeroE6, A549-ACE2 and/or HeLa-ACE2 (Mellott et al.)) was “potent inhibition”.
